Experimental data from EP1283052A1, “Pharmaceutical composition containing caspase-8 and /or caspase-9 useful for overcoming glucocorticoid- and cancer therapy-induced apoptosis of tumours” (Deutsches Krebsforschungszentrum Stiftung des öffentlichen …, priority 2001, dated 2003).

Columns and labels:
caspase-9 = assay: RT-PCR for caspase-9 mRNA expression in P5 cells; assay type: cell-based, human; details: cisplatin 2 µg/ml, 6 and 24 h, Fig. 4a
Procedure: P5 cells either untreated (CO) or stimulated with cisplatin (CIS, 2 µg/ml) were incubated in the absence or presence of DEX (1 µM). • (a) 6 and 24 h later RNA was extracted and assayed by RT-PCR for expression of caspase-9. Expression of the GAPDH gene served as control for equal conditions. • (b) 24 h after stimulation expression of caspase-9 proteins was examined by immunofluorescence staining using a rabbit polyclonal caspase-9 antibody and a FITC-coupled secondary antibody. Staining with the secondary antibody alone served as control for unspecific binding. • (c) 48 and 72 h after treatment whole cell proteins were extracted and analysed for expression of caspase-9 and caspase-3. The protein sizes in kDa are indicated on the right. […]
• (A) Cell culture. […] The mice were given 0.28 mg/L DEX in drinking water, and the amount of water consumed was monitored. […] The tumour volumes were measured using callipers, and calculated using, as an approximation, the formula for volume of a hemi-ellipsoid: π(width^2 x length)/6. […] Early apoptotic changes were identified by staining of cells with fluoresceinthiocyanate (FITC)-conjugated annexin V and propidium iodide (Becton Dickinson, Heidelberg, Germany) and analysed by flow cytometry (FACScan, Becton Dickinson) as described (Herr et al., EMBO J. 16 (1997), 6200-6208) • (E) Immunohistochemistry. […]

caspase-3 = assay: Fluorometric caspase-3 activity assay in CEM leukemic T cells; assay type: cell-based, human; details: cisplatin 2 µg/ml alone, Fig. 1c
Procedure: • (a) Human epidermoid lung cancer cells (P693) were injected into nude mice. At a tumour volume of 500 mm^3 weekly treatment with cisplatin (5mg/kg/week) was started. Cisplatin was injected intraperitoneally in the absence (CIS) or presence (DEX/CIS) of DEX which was added to the drinking water (0.28 mg/L) for the duration of the experiment. […] As controls, tumor growth of xenografts from mice which received neither cisplatin nor DEX (CO) or from mice which received DEX only (DEX) was determined. The tumour volume in each animal was measured at weekly intervals for a period of 5 weeks. Data are presented as the means +/- SD of 6 to 8 animals. • (b) The human cervical carcinoma cell lines HeLa and P5 were γ-irradiated (10 Gy) or treated with cisplatin (2 µg/ml) in the absence (white bars) or presence (black bars) of DEX (1 µM). The percentage of apoptosis was measured in untreated (CO) and stimulated cells by annexin-staining and FACS-analysis at the time points indicated. (c) P5, P693 and human leukemic T cells (CEM) cells were treated with cisplatin (2 µg/ml) in the absence or presence of DEX as indicated. 24 and 48 h following treatment cells were lysed and caspase-3 activity was determined by a fluorescent caspase-3 assay and spectroscopy.

SMILES: N.N.[Cl][Pt][Cl] [cisplatin]
- caspase-9 mRNA expression (caspase-9): strongly enhanced
- caspase-3 activity (caspase-3): responded earlier at 24 h with increased activity at 48 h
